The text below walks through data of patent US6380178B1, “Cyclic regimens using cyclocarbamate and cyclic amide derivatives” (American Home Products Corporation, priority 1999, dated 2002).

In turn, `CC1(C)OC(=O)Nc2cc(-c3cccc(Cl)c3)sc21` [Example 2, 6-(3-chlorophenyl)-1,4-dihydro-4,4-dimethyl-2H-thieno[3,2-d][1,3]oxazine-2-one] gave a melting point of 123 to 125 °C.

In turn, `CC1(C)OC(=O)Nc2sc(-c3cccc(Cl)c3)cc21` [Example 1, 6-(3-chlorophenyl)-1,4-dihydro-4,4-dimethyl-2H-thieno[2,3-d][1,3]oxazine-2-one] yielded a melting point of 149 to 150 °C.
